Data published in patent publication US7456165B2, “HCV NS5B inhibitors” (Bristol-Myers Squibb Company, priority 2006, dated 2008).
Like-named read-outs stand apart in the source and are kept apart here.

Key:
[1] = system: HCV replicon cells; test: HCV replicon FRET assay; type: cell-based
From the text: FRET Assay Preparation. To perform the HCV FRET screening assay, 96-well cell culture plates were used. The FRET peptide (Anaspec, Inc.) (Taliani et al., Anal Biochem. 1996, 240, 60-67) contains a fluorescence donor, EDANS, near one end of the peptide and an acceptor, DABCYL, near the other end. The fluorescence of the peptide is quenched by […] resonance energy transfer (RET) between the donor and the acceptor, but as the NS3 protease cleaves the peptide the products are released from RET quenching and the fluorescence of the donor becomes apparent. The assay reagent was made as follows: 5× cell Luciferase cell culture lysis reagent from Promega (#E153A) diluted to 1× with dH2O, NaCl added to 150 mM final, the FRET peptide diluted to 20 μM final from a 2 mM stock.
To prepare plates, HCV replicon cells, with or without a Renilla luciferase reporter gene, were trypsinized and placed into each well of a 96-well plate with titrated test compounds added in columns 3 through 12; columns 1 and 2 contained a control compound (HCV protease inhibitor), and the bottom row contained cells without compound. The plates were then placed in a CO2 incubator at 37° C.
Assays. Subsequent to addition of the test compounds described above (FRET Assay Preparation), at various times the plate was removed and Alamar blue solution (Trek Diagnostics, #00-100) was added per well as a measure of cellular toxicity. After reading in a Cytoflour 4000 instrument (PE Biosystems), plates were rinsed with PBS and then used for FRET assay by the addition of 30 ul of the FRET peptide assay reagent described above (FRET Assay Preparation) per well. The plate was then placed into the Cytoflour 4000 instrument which had been set to 340 excite/490 emission, automatic mode for 20 cycles and the plate read in a kinetic mode. Typically, the signal to noise using an endpoint analysis after the reads was at least three-fold. Alternatively, after Alamar blue reading, plates were rinsed with PBS, 50 ul of DMEM (high glucose) without phenol red was added and plates were then used for luciferase assay using the Promega Dual-Glo Luciferase Assay System.
Compound analysis was determined by quantification of the relative HCV replicon inhibition and the relative cytotoxicity values. To calculate cytoxicity values, the average Alamar Blue fluorescence signals from the control wells were set as 100% non-toxic. The individual signals in each of the compound test wells were then divided by the average control signal and multiplied by 100% to determine […]. To calculate the HCV replicon inhibition values, an average background value was obtained from the two wells containing the highest amount of HCV protease inhibitor at the end of the assay period. These numbers were similar to those obtained from naïve Huh-7 cells.
The background numbers were then subtracted from the average signal obtained from the control wells and this number was used as 100% activity. The individual signals in each of the compound test wells were then divided by the averaged control values after background subtraction and multiplied by 100% to determine percent activity. EC50 values for a protease inhibitor titration were calculated as the concentration which caused a 50% reduction in FRET or luciferase activity. The two numbers generated for the compound plate, percent cytoxicity and percent activity were used to determine compounds of interest for further analysis.

[2] = molecular target: T1, HCV NS5B (Hepatitis C virus genotype 1b, UniProt Q9WMX2); test: HCV NS5B RdRp enzyme assay (preincubation protocol); type: biochemical; conditions: HCV NS5B RdRp genotype 1b
T1 construct: The protein was expressed with an 18 amino acid C-terminal truncation to enhance the solubility; made in house; host or cells: E. coli BL21(DE3)
Method: HCV NS5B RdRp cloning, expression, and purification. The cDNA encoding the NS5B protein of HCV, genotype 1b, was cloned into the pET21a expression vector. The protein was expressed with an 18 amino acid C-terminal truncation to enhance the solubility. The E. coli competent cell line BL21(DE3) was used for expression of the protein. Cultures were grown at 37° C. for ˜4 hours until the cultures reached an optical density of 2.0 at 600 nm. The cultures were cooled to 20° C. and induced with 1 mM IPTG. Fresh ampicillin was added to a final concentration of 50 μg/ml and the cells were grown overnight at 20° C.
Cell pellets (3 L) were lysed for purification to yield 15-24 mgs of purified NS5B. The lysis buffer consisted of 20 mM Tris-HCl, pH 7.4, 500 mM NaCl, 0.5% triton X-100, 1 mM DTT, 1 mM EDTA, 20% glycerol, 0.5 mg/ml lysozyme, 10 mM MgCl2, 15 ug/ml deoxyribonuclease I, and Complete TM protease inhibitor tablets (Roche). After addition of the lysis buffer, frozen cell pellets were resuspended using a tissue homogenizer. To reduce the viscosity of the sample, aliquots of the lysate were sonicated on ice using a microtip attached to a Branson sonicator. The sonicated lysate was centrifuged at 100,000×g for 1 hr at 4° C. and filtered through a 0.2 μm filter unit (Corning).
The protein was purified using three sequential chromatography steps: Heparin sepharose CL-6B, polyU sepharose 4B, and Hitrap SP sepharose (Pharmacia). The chromatography buffers were identical to the lysis buffer but contained no lysozyme, deoxyribonuclease I, MgCl2 or protease inhibitor and the NaCl concentration of the buffer was adjusted according to the requirements for charging the protein onto the column. Each column was eluted with a NaCl gradient which varied in length from 5-50 column volumes depending on the column type. After the final chromatography step, the resulting purity of the enzyme is >90% based on SDS-PAGE analysis. The enzyme was aliquoted and stored at −80° C.
Standard HCV NS5B RdRp enzyme assay. HCV RdRp genotype 1b assays were run in a final volume of 60 μl in 96 well plates (Costar 3912 H. The assay buffer is composed of 20 mM Hepes, pH 7.5, 2.5 mM KCl, 2.5 mM MgCl2, 1 mM DTT, 1.6 U RNAse inhibitor (Promega N2515), 0.1 mg/ml BSA (Promega R3961), and 2% glycerol. All compounds were serially diluted (3-fold) in DMSO and diluted further in water such that the final concentration of DMSO in the assay was 2%. HCV RdRp genotype 1b enzyme was used at a final concentration of 28 nM. A polyA template was used at 6 nM, and a biotinylated oligo-dT12 primer was used at 180 nM final concentration. Template was obtained commercially (Amersham 27-4110). Biotinylated primer was prepared by Sigma Genosys. 3H-UTP was used at 0.6 μCi (0.29 μM total UTP). Reactions were initiated by the addition of enzyme, incubated at 30° C. for 60 min, and stopped by adding 25 μl of 50 mM EDTA containing SPA beads (4 μg/μl, Amersham RPNQ 0007 H. Plates were read on a Packard Top Count NXT after >1 hr incubation at room temperature.
Modified HCV NS5B RdRp enzyme assay. A modified enzyme assay was performed essentially as described for the standard enzyme assay except for the following: The biotinylated oligo dT12 primer was precaptured on streptavidin-coated SPA beads by mixing primer and beads in assay buffer and incubating at room temperature for one hour. Unbound primer was removed after centrifugation. The primer-bound beads were resuspended in 20 mM Hepes buffer, pH 7.5 and used in the assay at final concentrations of 20 nM primer and 0.67 μg/μl beads. Order of addition in the assay: enzyme (14 nM) was added to diluted compound followed by the addition of a mixture of template (0.2 nM), 3H-UTP (0.6 μCi, 0.29 μM), and primer-bound beads, to initiate the reaction; concentrations given are final. Reactions were allowed to proceed for 4 hours at 30° C.
IC50 values for compounds were determined using seven different [I]. […]

T1 sequence (Q9WMX2 2420-2992): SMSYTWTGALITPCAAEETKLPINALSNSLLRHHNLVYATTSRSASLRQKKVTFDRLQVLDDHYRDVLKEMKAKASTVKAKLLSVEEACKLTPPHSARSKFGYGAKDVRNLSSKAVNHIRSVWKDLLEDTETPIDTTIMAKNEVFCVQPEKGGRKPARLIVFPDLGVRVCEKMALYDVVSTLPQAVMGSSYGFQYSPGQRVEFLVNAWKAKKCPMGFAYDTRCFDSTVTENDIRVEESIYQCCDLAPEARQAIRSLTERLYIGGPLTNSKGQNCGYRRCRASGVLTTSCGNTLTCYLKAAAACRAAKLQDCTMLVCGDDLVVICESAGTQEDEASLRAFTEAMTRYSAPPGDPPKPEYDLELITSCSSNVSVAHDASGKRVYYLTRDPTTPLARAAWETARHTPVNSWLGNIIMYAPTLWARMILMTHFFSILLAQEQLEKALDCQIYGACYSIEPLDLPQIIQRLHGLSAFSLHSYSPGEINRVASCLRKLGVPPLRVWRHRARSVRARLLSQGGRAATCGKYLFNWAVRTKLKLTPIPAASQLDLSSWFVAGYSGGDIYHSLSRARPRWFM

| SMILES | EC50 ([1]; Hepatitis C virus) [nM] | IC50 [2] [nM] | EC50 [1] [nM] |
| --- | --- | --- | --- |
| O=C(O)c1ccc2c(C3CCCCC3)c3n(c2c1)CC(c1n[nH]c(CC2CCOCC2)n1)=Cc1ccccc1-3 [Example 22, 13-cyclohexyl-6-[3-[(tetrahydro-2H-pyran-4-yl)methyl]-1H-1,2,4-triazol-5-yl]-7H-indolo[2,1-a][2]benzazepine-10-carboxylic acid] | > 500 | 1 to 500 |  |
| CN(C)S(=O)(=O)NC(=O)c1ccc2c(C3CCCCC3)c3n(c2c1)CC(c1nc(CC2CCOCC2)n(C)n1)=Cc1ccccc1-3 [Example 43, 13-cyclohexyl-N-[(dimethylamino)sulfonyl]-6-[1-methyl-5-[(tetrahydro-2H-pyran-4-yl)methyl]-1H-1,2,4-triazol-3-yl]-7H-indolo[2,1-a][2]benzazepine-10-carboxamide] | > 500 | 1 to 500 |  |
| CCn1nnc(C2=Cn3c(c(C4CCCCC4)c4ccc(C(=O)O)cc43)-c3ccccc3C2)n1 [Example 2, 13-cyclohexyl-6-(2-ethyl-2H-tetrazol-5-yl)-5H-indolo[2,1-a][2]benzazepine-10-carboxylic acid] | > 500 | 1 to 500 |  |
| COc1ccc2c(c1)CC(c1ncc(CCC(=O)N3CCOCC3)o1)Cn1c-2c(C2CCCCC2)c2ccc(C(=O)O)cc21 (single isomer, unassigned) [Example 51, 13-Cyclohexyl-3-methoxy-6-(5-(3-(4-morpholinyl)-3-oxopropyl)-1,3-oxazol-2-yl)-6,7-dihydro-5H-indolo[2,1-a][2]benzazepine-10-carboxylic acid] |  | 1 to 500 | > 500 |
| COC(=O)c1ccc2c(C3CCCCC3)c3n(c2c1)CC(c1ncc(CCC(=O)O)o1)=Cc1cc(OC)ccc1-3 [Example 47, 3-(2-(13-Cyclohexyl-3-methoxy-10-(methoxycarbonyl)-7H-indolo[2,1-a][2]benzazepin-6-yl)-1,3-oxazol-5-yl)propanoic acid] | > 500 | 1 to 500 |  |
| O=C(O)c1ccc2c(C3CCCCC3)c3n(c2c1)CC(c1n[nH]c(=O)o1)=Cc1ccccc1-3 [Example 19, 13-cyclohexyl-6-(4,5-dihydro-5-oxo-1,3,4-oxadiazol-2-yl)-7H-indolo[2,1-a][2]benzazepine-10-carboxylic acid] | > 500 | 1 to 500 |  |
| COC(=O)CCc1cnc(C2=Cc3cc(OC)ccc3-c3c(C4CCCCC4)c4ccc(C(=O)OC)cc4n3C2)o1 [Example 46, Methyl 13-cyclohexyl-3-methoxy-6-(5-(3-methoxy-3-oxopropyl)-1,3-oxazol-2-yl)-7H-indolo[2,1-a][2]benzazepine-10-carboxylate] | > 500 | > 500 |  |
| O=C(O)c1ccc2c(C3CCCCC3)c3n(c2c1)CC(c1nnn(CC2CCOCC2)n1)=Cc1ccccc1-3 [Example 11, 13-cyclohexyl-6-[2-[(tetrahydro-2H-pyran-4-yl)methyl]-2H-tetrazol-5-yl]-7H-indolo[2,1a][2]benzazepine-10-carboxylic acid] | > 500 | 1 to 500 |  |
| COc1ccc2c(c1)C=C(c1ncco1)Cn1c-2c(C2CCCCC2)c2ccc(C(=O)NS(=O)(=O)N(C)C)cc21 [Example 57, 13-Cyclohexyl-N-((dimethylamino)sulfonyl)-3-methoxy-6-(1,3-oxazol-2-yl)-7H-indolo[2,1-a][2]benzazepine-10-carboxamide] | 1 to 500 | 1 to 500 |  |
| CN(C)S(=O)(=O)NC(=O)c1ccc2c(C3CCCCC3)c3n(c2c1)CC(c1nc(CS(C)(=O)=O)no1)=Cc1ccccc1-3 [Example 28, 13-cyclohexyl-N-[(dimethylamino)sulfonyl]-6-[3-[(methylsulfonyl)methyl]-1,2,4-oxadiazol-5-yl]-7H-indolo[2,1-a][2]benzazepine-10-carboxamide] | > 500 | 1 to 500 |  |
| COc1ccc2c(c1)C[C@H](c1ncc(CCC(=O)N3CCOCC3)o1)Cn1c-2c(C2CCCCC2)c2ccc(C(=O)NS(=O)(=O)N(C)C)cc21 (single isomer, unassigned) [Example 54, 13-cyclohexyl-N-((dimethylamino)sulfonyl)-3-methoxy-6-(5-(3-(4-morpholinyl)-3-oxopropyl)-1,3-oxazol-2-yl)-6,7-dihydro-5H-indolo[2,1-a][2]benzazepine-10-carboxamide] | 1 to 500 | 1 to 500 |  |
| COC(=O)c1ccc2c(C3CCCCC3)c3n(c2c1)CC(c1ncc(CCC(=O)N2CCOCC2)o1)=Cc1ccccc1-3 [Example 35] | > 500 | > 500 |  |
| COC(=O)c1ccc2c(C3CCCCC3)c3n(c2c1)CC(c1nnc(CC2CCOCC2)o1)=Cc1ccccc1-3 [Example 39, 13-cyclohexyl-6-[5-[(tetrahydro-2H-pyran-4-yl)methyl]-1,3,4-oxadiazol-2-yl]-7H-indolo[2,1-a][2]benzazepine-10-carboxylic acid, methyl ester] | > 500 | > 500 |  |
| CCn1nnc(C2=Cc3ccccc3-c3c(C4CCCCC4)c4ccc(C(=O)NS(=O)(=O)N(C)C)cc4n3C2)n1 [Example 4] | > 500 | 1 to 500 |  |
